Patent US20220117968A1, “THIENO[2,3-D)PYRIMIDINES AND BENZOFURO(3,2-D)PYRIMIDINES AS ANTIMICROBIAL AGENTS” (Saint Louis University, priority 2017, published 2022)
In brackets after ≈: the same amount, converted by molar mass.

What was measured:
[1] = system: WT Mtb Erdman; experiment: Disk zone of inhibition assay; assay type: cell-based; conditions: Mycobacterium tuberculosis, 240 h, radius of zone absent of bacterial growth, 5 μl of 100 mM stock in DMSO on disk, Middlebrook 7H10 agar, 10 days at 37° C.
[2] = system: WT Mtb Erdman strain; experiment: Microplate Alamar Blue Assay (MABA); assay type: cell-based; conditions: Mycobacterium tuberculosis, Middlebrook 7H9 media, 7 days at 37° C., resazurin 24 hours; for MIC50: concentration that inhibits mycobacterial survival by 50%, read-out: MABA MIC50; for MIC90: concentration that inhibits mycobacterial survival by 90%, read-out: MABA MIC90

Row | SMILES | zone of inhibition at 100000 µM (stock) [1] [mm] | MIC50 [2] [µM] | MIC90 [2] [µM]
1 | CCc1nc(NC2CC2)c2cc(C)sc2n1 [Example 0946, N-Cyclopropyl-2-ethyl-6-methylthieno[2,3-d]pyrimidin-4-amine] | 27 | 0.633 (≈ 0.148 µg/mL) | 2.04 (≈ 0.476 µg/mL)
2 | CCc1nc(NCCOC)c2cc(C)sc2n1 [Example 0950, 2-ethyl-N-(2-methoxyethyl)-6-methylthieno[2,3-d]pyrimidin-4-amine] | 0 | 15.9 (≈ 4 µg/mL) | 28.4 (≈ 7.14 µg/mL)
3 | CCc1nc(NC2CCC2)c2cc(C)sc2n1 [Example 1019, N-Cyclobutyl-2-ethyl-6-methylthieno[2,3-d]pyrimidin-4-amine] | 10 | 11.1 (≈ 2.75 µg/mL) | 26.4 (≈ 6.53 µg/mL)
4 | CCc1nc(NCC(F)(F)F)c2cc(C)sc2n1 [Example 1072, 2-Ethyl-6-methyl-N-(2,2,2-trifluoroethyl)thieno[2,3-d]pyrimidin-4-amine] | 9 | 6.32 (≈ 1.74 µg/mL) | 19.2 (≈ 5.29 µg/mL)
5 | CCc1nc(N)c2cc(C)sc2n1 [Example 1060, 2-Ethyl-6-methyl-thieno[2,3-d]pyrimidin-4-amine] | 0 | 10 (≈ 1.93 µg/mL) | 17.2 (≈ 3.32 µg/mL)
6 | CCc1nc(NC2CC2)c2ccsc2n1 [Example 1074, N-Cyclopropyl-2-ethyl-thieno[2,3-d]pyrimidin-4-amine] | 21 | 6.1 (≈ 1.34 µg/mL) | 22.7 (≈ 4.98 µg/mL)
7 | FC(F)(F)c1nc(NC2CC2)c2ccsc2n1 [Example 1541, N-Cyclopropyl-2-(trifluoromethyl)thieno[2,3-d]pyrimidin-4-amine] | 1.8 | 36.8 (≈ 9.54 µg/mL) | > 50
8 | CCCCNc1nc(C)nc2sc3c(c12)CCCC3 [Example 0881, N-butyl-5-methyl-8-thia-4,6-diazatricyclo[7.4.0.0^2,^7]trideca-1(9),2,4,6-tetraen-3-amine] | 7 | 6.45 (≈ 1.78 µg/mL) | 13.4 (≈ 3.69 µg/mL)
9 | CCc1nc(NCCC(C)C)c2cc(C)sc2n1 [Example 1022, 2-Ethyl-6-methyl-N-(3-methylbutyl)thieno[2,3-d]pyrimidin-4-amine] | 14 | 0.329 (≈ 0.0867 µg/mL) | 0.96 (≈ 0.253 µg/mL)
10 | CCc1nc(N(CC)CC)c2cc(C)sc2n1 [Example 0943, N,N,2-triethyl-6-methylthieno[2,3-d]pyrimidin-4-amine] | 4 | > 50 | > 50
11 | CCc1nc(N2CCCCC2)c2cc(C)sc2n1 [Example 0942, 1-{2-ethyl-6-methylthieno[2,3-d]pyrimidin-4-yl}piperidine] | 5 | 47.5 (≈ 12.4 µg/mL) | > 50
12 | CCc1nc(NCCCOC)c2cc(C)sc2n1 [Example 0941, 2-ethyl-N-(3-methoxypropyl)-6-methylthieno[2,3-d]pyrimidin-4-amine] | 4 | 7.79 (≈ 2.07 µg/mL) | 16.3 (≈ 4.33 µg/mL)
13 | CCc1nc(NC2CC2)c2c(C)csc2n1 [Example 1701, N-Cyclopropyl-2-ethyl-5-methylthieno[2,3-d]pyrimidin-4-amine] | 1.7 | 9.77 (≈ 2.28 µg/mL) | 16.1 (≈ 3.76 µg/mL)
14 | CCCCN(C)c1nc(CC)nc2sc(C)cc12 [Example 1021, N-Butyl-2-ethyl-N,6-dimethylthieno[2,3-d]pyrimidin-4-amine] | 10 | 3.93 (≈ 1.04 µg/mL) | 9.81 (≈ 2.58 µg/mL)
15 | Cc1cc2c(NC3CC3)nc(C(C)C)nc2s1 [Example 1061, N-Cyclopropyl-2-isopropyl-6-methyl-thieno[2,3-d]pyrimidin-4-amine] | 19 | 0.615 (≈ 0.152 µg/mL) | 1.28 (≈ 0.317 µg/mL)
16 | CCc1nc(NC(C)(C)C)c2cc(C)sc2n1 [Example 1069, N-tert-Butyl-2-ethyl-6-methyl-thieno[2,3-d]pyrimidin-4-amine] | 5 | 30.9 (≈ 7.71 µg/mL) | > 50
